Data published in PubChem BioAssay (NCI).
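Five concentrations, 48 hours, 96-well plates. TGI: concentration producing complete growth inhibition.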 Where a SMILES comes first, the peptide text is derived from it. The star is where a group is joined. Cbz = O=C(OCc1ccccc1)*; CH2Cl = ClC*

Key:
Assay in all cases: DTP human tumour cell line panel, 48 h
MALME-3M melanoma = system: MALME-3M melanoma
OVCAR-4 ovarian = system: OVCAR-4 ovarian
UACC-257 melanoma = system: UACC-257 melanoma
OVCAR-3 ovarian = system: OVCAR-3 ovarian
LOX IMVI melanoma = system: LOX IMVI melanoma
DMS 114 small cell lung = system: DMS 114 small cell lung
OVCAR-5 ovarian = system: OVCAR-5 ovarian
COLO 205 colon = system: COLO 205 colon
SK-OV-3 ovarian = system: SK-OV-3 ovarian
M19-MEL melanoma = system: M19-MEL melanoma
RXF 393 renal = system: RXF 393 renal
ACHN renal = system: ACHN renal
SNB-19 CNS = system: SNB-19 CNS
SF-295 CNS = system: SF-295 CNS
KM20L2 colon = system: KM20L2 colon
HL-60(TB) leukemia = system: HL-60(TB) leukemia
UACC-62 melanoma = system: UACC-62 melanoma
HCC-2998 colon = system: HCC-2998 colon
SK-MEL-28 melanoma = system: SK-MEL-28 melanoma
M14 melanoma = system: M14 melanoma
HCT-15 colon = system: HCT-15 colon
OVCAR-8 ovarian = system: OVCAR-8 ovarian
XF 498 CNS = system: XF 498 CNS
SF-539 CNS = system: SF-539 CNS
SR leukemia = system: SR leukemia
EKVX NSCLC = system: EKVX NSCLC
786-0 renal = system: 786-0 renal
HOP-62 NSCLC = system: HOP-62 NSCLC
UO-31 renal = system: UO-31 renal
HCT-116 colon = system: HCT-116 colon
RPMI-8226 leukemia = system: RPMI-8226 leukemia
DMS 273 small cell lung = system: DMS 273 small cell lung
KM12 colon = system: KM12 colon
DLD-1 colon = system: DLD-1 colon
LXFL 529 NSCLC = system: LXFL 529 NSCLC
IGROV1 ovarian = system: IGROV1 ovarian
SNB-78 CNS = system: SNB-78 CNS
TK-10 renal = system: TK-10 renal
CCRF-CEM leukemia = system: CCRF-CEM leukemia
SK-MEL-5 melanoma = system: SK-MEL-5 melanoma
HOP-18 NSCLC = system: HOP-18 NSCLC
MOLT-4 leukemia = system: MOLT-4 leukemia
A549 NSCLC = system: A549 NSCLC
SK-MEL-2 melanoma = system: SK-MEL-2 melanoma
SNB-75 CNS = system: SNB-75 CNS
SN12C renal = system: SN12C renal
SW-620 colon = system: SW-620 colon
HT29 colon = system: HT29 colon
NCI-H226 lung = system: NCI-H226 lung
NCI-H23 lung = system: NCI-H23 lung
U251 CNS = system: U251 CNS
NCI-H460 lung = system: NCI-H460 lung
A498 renal = system: A498 renal
K-562 leukemia = system: K-562 leukemia
NCI-H522 lung = system: NCI-H522 lung
HOP-92 NSCLC = system: HOP-92 NSCLC
SF-268 CNS = system: SF-268 CNS
CAKI-1 renal = system: CAKI-1 renal
MDA-N = system: MDA-N
MDA-MB-231 breast = system: MDA-MB-231 breast
HS 578T breast = system: HS 578T breast
PC-3 prostate = system: PC-3 prostate
T-47D breast = system: T-47D breast
NCI/ADR-RES ovarian = system: NCI/ADR-RES ovarian
MCF7 breast = system: MCF7 breast
BT-549 breast = system: BT-549 breast
DU-145 prostate = system: DU-145 prostate
MDA-MB-435 = system: MDA-MB-435

C1CN2CCN3CCN4CCN1[P+]243
TGI (MALME-3M melanoma): > 100 µM | TGI (OVCAR-4 ovarian): > 100 µM | TGI (UACC-257 melanoma): > 100 µM | TGI (OVCAR-3 ovarian): > 100 µM | TGI (LOX IMVI melanoma): > 100 µM | TGI (DMS 114 small cell lung): > 100 µM | TGI (OVCAR-5 ovarian): > 100 µM | TGI (COLO 205 colon): > 100 µM | TGI (SK-OV-3 ovarian): > 100 µM | TGI (M19-MEL melanoma): > 100 µM | TGI (RXF 393 renal): > 100 µM | TGI (ACHN renal): > 100 µM | TGI (SNB-19 CNS): > 100 µM | TGI (SF-295 CNS): > 100 µM | TGI (KM20L2 colon): > 100 µM | TGI (HL-60(TB) leukemia): > 100 µM | TGI (UACC-62 melanoma): > 100 µM | TGI (HCC-2998 colon): > 100 µM | TGI (SK-MEL-28 melanoma): > 100 µM | TGI (M14 melanoma): > 100 µM | TGI (HCT-15 colon): > 100 µM | TGI (OVCAR-8 ovarian): > 100 µM | TGI (XF 498 CNS): > 100 µM | TGI (SF-539 CNS): > 100 µM | TGI (SR leukemia): > 100 µM | TGI (EKVX NSCLC): > 100 µM | TGI (786-0 renal): > 100 µM | TGI (HOP-62 NSCLC): > 100 µM | TGI (UO-31 renal): > 100 µM | TGI (HCT-116 colon): > 100 µM | TGI (RPMI-8226 leukemia): > 100 µM | TGI (DMS 273 small cell lung): > 100 µM | TGI (KM12 colon): > 100 µM | TGI (DLD-1 colon): > 100 µM | TGI (LXFL 529 NSCLC): > 100 µM | TGI (IGROV1 ovarian): > 100 µM | TGI (SNB-78 CNS): > 100 µM | TGI (TK-10 renal): > 100 µM | TGI (CCRF-CEM leukemia): > 100 µM | TGI (SK-MEL-5 melanoma): > 100 µM | TGI (HOP-18 NSCLC): > 100 µM | TGI (MOLT-4 leukemia): > 100 µM | TGI (A549 NSCLC): > 100 µM | TGI (SK-MEL-2 melanoma): > 100 µM | TGI (SNB-75 CNS): > 100 µM | TGI (SN12C renal): > 100 µM | TGI (SW-620 colon): > 100 µM | TGI (HT29 colon): > 100 µM | TGI (NCI-H226 lung): > 100 µM | TGI (NCI-H23 lung): > 100 µM | TGI (U251 CNS): > 100 µM | TGI (NCI-H460 lung): > 100 µM | TGI (A498 renal): > 100 µM | TGI (K-562 leukemia): > 100 µM | TGI (NCI-H522 lung): > 100 µM

Cn1c(=O)n(C2(C)C[Se]C2)c2ccccc21
TGI (OVCAR-4 ovarian): > 100 µM | TGI (UACC-257 melanoma): > 100 µM | TGI (HOP-92 NSCLC): > 100 µM | TGI (LOX IMVI melanoma): > 100 µM | TGI (OVCAR-5 ovarian): > 100 µM | TGI (COLO 205 colon): > 100 µM | TGI (SK-OV-3 ovarian): > 100 µM | TGI (M19-MEL melanoma): > 100 µM | TGI (RXF 393 renal): > 100 µM | TGI (ACHN renal): > 100 µM | TGI (SNB-19 CNS): > 100 µM | TGI (SF-295 CNS): > 100 µM | TGI (KM20L2 colon): > 100 µM | TGI (HL-60(TB) leukemia): > 100 µM | TGI (UACC-62 melanoma): > 100 µM | TGI (HCC-2998 colon): > 100 µM | TGI (SK-MEL-28 melanoma): > 100 µM | TGI (M14 melanoma): > 100 µM | TGI (HCT-15 colon): > 100 µM | TGI (OVCAR-8 ovarian): > 100 µM | TGI (SF-539 CNS): > 100 µM | TGI (SR leukemia): > 100 µM | TGI (EKVX NSCLC): > 100 µM | TGI (786-0 renal): > 100 µM | TGI (HOP-62 NSCLC): > 100 µM | TGI (UO-31 renal): > 100 µM | TGI (SF-268 CNS): > 100 µM | TGI (HCT-116 colon): > 100 µM | TGI (RPMI-8226 leukemia): > 100 µM | TGI (DMS 273 small cell lung): > 100 µM | TGI (KM12 colon): > 100 µM | TGI (DLD-1 colon): > 100 µM | TGI (LXFL 529 NSCLC): > 100 µM | TGI (IGROV1 ovarian): > 100 µM | TGI (SNB-78 CNS): > 100 µM | TGI (TK-10 renal): > 100 µM | TGI (CCRF-CEM leukemia): > 100 µM | TGI (SK-MEL-5 melanoma): > 100 µM | TGI (MOLT-4 leukemia): > 100 µM | TGI (A549 NSCLC): > 100 µM | TGI (SK-MEL-2 melanoma): > 100 µM | TGI (SNB-75 CNS): > 100 µM | TGI (CAKI-1 renal): > 100 µM | TGI (SN12C renal): > 100 µM | TGI (SW-620 colon): > 100 µM | TGI (HT29 colon): > 100 µM | TGI (NCI-H226 lung): > 100 µM | TGI (NCI-H23 lung): > 100 µM | TGI (U251 CNS): > 100 µM | TGI (NCI-H460 lung): > 100 µM | TGI (A498 renal): > 100 µM | TGI (K-562 leukemia): > 100 µM | TGI (NCI-H522 lung): > 100 µM

CC(C)CC(NC(=O)OCc1ccccc1)C(=O)NC(Cc1ccccc1)C(=O)CCl (stereo not drawn) (Cbz-Leu-Phe-CH2Cl; configuration not given here)
TGI (MALME-3M melanoma): 4.16 µM | TGI (OVCAR-4 ovarian): 4.69 µM | TGI (UACC-257 melanoma): 23.7 µM | TGI (MDA-N): 3.19 µM | TGI (HOP-92 NSCLC): 3.73 µM | TGI (OVCAR-3 ovarian): 8.26 µM | TGI (LOX IMVI melanoma): 2.08 µM | TGI (OVCAR-5 ovarian): 15.3 µM | TGI (COLO 205 colon): 8.44 µM | TGI (SK-OV-3 ovarian): 16.1 µM | TGI (RXF 393 renal): 3.3 µM | TGI (ACHN renal): 11.3 µM | TGI (SNB-19 CNS): > 56.8 µM | TGI (MDA-MB-231 breast): 3.3 µM | TGI (SF-295 CNS): 43.7 µM | TGI (HL-60(TB) leukemia): 3.53 µM | TGI (UACC-62 melanoma): 7.82 µM | TGI (HCC-2998 colon): 26.1 µM | TGI (HS 578T breast): 25.7 µM | TGI (SK-MEL-28 melanoma): 3.97 µM | TGI (PC-3 prostate): 9.41 µM | TGI (M14 melanoma): 3.45 µM | TGI (HCT-15 colon): 3.34 µM | TGI (OVCAR-8 ovarian): 5.11 µM | TGI (SF-539 CNS): 10.2 µM | TGI (T-47D breast): 4.89 µM | TGI (SR leukemia): 4.66 µM | TGI (EKVX NSCLC): 34.5 µM | TGI (786-0 renal): 3.08 µM | TGI (HOP-62 NSCLC): 30.5 µM | TGI (UO-31 renal): 18.2 µM | TGI (SF-268 CNS): 9.88 µM | TGI (HCT-116 colon): 3.31 µM | TGI (NCI/ADR-RES ovarian): 11.4 µM | TGI (RPMI-8226 leukemia): 5.15 µM | TGI (KM12 colon): 35.3 µM | TGI (MCF7 breast): 7.85 µM | TGI (IGROV1 ovarian): 4.11 µM | TGI (TK-10 renal): 3.24 µM | TGI (CCRF-CEM leukemia): 0.776 µM | TGI (SK-MEL-5 melanoma): 3.5 µM | TGI (BT-549 breast): 6.16 µM | TGI (MOLT-4 leukemia): 4.33 µM | TGI (A549 NSCLC): 39.4 µM | TGI (SK-MEL-2 melanoma): 7.37 µM | TGI (DU-145 prostate): > 100 µM | TGI (SNB-75 CNS): 9.32 µM | TGI (CAKI-1 renal): 12.5 µM | TGI (SN12C renal): 3.39 µM | TGI (SW-620 colon): 3.94 µM | TGI (HT29 colon): 7.54 µM | TGI (NCI-H226 lung): 3.98 µM | TGI (NCI-H23 lung): 4.9 µM | TGI (U251 CNS): 22 µM | TGI (NCI-H460 lung): 18 µM | TGI (MDA-MB-435): 6.56 µM | TGI (A498 renal): 71.2 µM | TGI (K-562 leukemia): 6.77 µM | TGI (NCI-H522 lung): 2.74 µM
